Measured values as given in PMC3243694, “Integrated Dataset of Screening Hits against Multiple Neglected Disease Pathogens” (PLoS Neglected Tropical Diseases, 2011).

Columns and labels:
[1] = tested on: Plasmodium falciparum K1 strain; experiment: Anti-Plasmodium activity assay (Malstat); format: cell-based; conditions: P. falciparum K1, 72 h
Protocol: (§1) The compound set was tested against the following parasites: intra-erythrocytic forms in human red blood cells of P. falciparum K1 strain (malaria), [16], [32], [33], [35], bloodstream forms of T. brucei Squib 427 strain (human African trypanosomiasis, HAT), [31], [32], [34], intracellular amastigotes of T. cruzi Tulahuen CL2, beta- galactosidase strain (Chagas' Disease), [32]–[35], intracellular amastigotes of L. infantum MHOM/MA(BE)/67 (leishmaniasis), [32]–[36], larval and/or adult worms of S. mansoni Puerto Rican strain (schistosomiasis), [31], [37], microfilariae of B. malayi (lymphatic filariasis), [30] and microfilariae of O. ochengi or O. lienalis (onchocerciasis), [30]. It should be noted that the human pathogen for onchocerciasis is Onchocerca volvulus, but due to lack of a suitable in vitro assay or animal models for this pathogen, O. ochengi and lienalis, which are both animal pathogens, are used in the primary and secondary assays, [30].

[2] = tested on: Trypanosoma cruzi, Tulahuen CL2 strain; experiment: Antitrypanosomal activity assay, T. cruzi in MRC-5 cells; format: cell-based; conditions: T. cruzi Tulahuen CL2 in MRC-5 cells, 7 days
Protocol: as §1
171 of the 744 actives passed the initial criterion of IC50<1 µg/ml for T. cruzi Tulahuen CL2, beta galactosidase strain maintained on MRC-5SV2 cells in MEM medium (MRC-5 cell/parasite inoculum: 4.10^3 cells/well+4.10^4 parasites/well), supplemented with […] L-glutamine, 16.5 mM NaHCO3 and 5% heat inactivated fetal calf serum. […] Of these, 109 were eliminated [structures #1–6] for poor selectivity versus mammalian cells (SI<50) and an additional 11 due to undesirable chemical attributes. The remaining 51 compounds were sorted into 10 series (45 compounds) and 6 singletons [structures # 21, 22]. Two of these series with excellent potency against T. cruzi, limited activity against other protozoa and SI values >50 (not shown), have been transferred to DNDi for further evaluation.

[3] = tested on: Brugia malayi microfilariae; experiment: Anti-Brugia malayi microfilariae motility assay; format: cell-based; conditions: B. malayi microfilariae; 12.5 µM
Protocol: as §1
(§2) As result of logistics issues attributed to lost shipments of some compounds, only 6160 molecules of the 10,000 compound set were tested, at a uniform molarity, against B. malayi, including 6063 against microfilariae and 756 against adult worms (these sets overlap). […] Greatest priority was given to compounds with activity against adult worms, as no macrofilaricide is available for use in control campaigns and the activity of ivermectin as a microfilaricidal agent is unlikely to be bettered in a new series. Of the test set, 53 compounds met the activity criterion for microfilariae (100% motility reduction) and an additional 58 inhibited adult worm motility ≥75% at 10 µM. These were titrated to determine an IC50 value to support prioritization. Following cytotoxicity triage [structures # 1, 4, 6], eight compounds met the activity criterion for adult worms (i.e., 100% inhibition of adult worm motility), four of which were also active against microfilariae [structures # 14, 29, 30, 32]. […] Of these, the most interesting was TDR76699 [structure # 29]; this compound has very good activity against adult worms (IC50 = 0.1 µg/ml) and is also active against microfilariae (IC50 = 0.7 µg/ml). None of the other compounds tested against adult parasites had IC50 values ≤0.5 µg/ml, a threshold which would reduce concerns about specificity. However, a few series [structures # 31, 33, 34], appear interesting for future medicinal chemistry projects.

[4] = tested on: MRC-5 cell line (diploid human embryonic lung fibroblast); experiment: Cytotoxicity on MRC-5 cells; format: cell-based
Text: [table] An important part of the screen is the evaluation of all compounds for cytotoxicity using the diploid human embryonic lung fibroblast MRC-5 cell line (Figure 2). Further evaluation of cytotoxicity also takes advantage of the assays for intracellular protozoan parasites, as in the case of L. infantum and T. cruzi, which include murine peritoneal macrophage host cells and MRC-5SV2 human lung fibroblast cells, respectively, in the culture system.

[5] = tested on: Onchocerca (lienalis or ochengi) microfilariae; experiment: Anti-Onchocerca microfilariae motility assay; format: cell-based, Onchocerca lienalis or O. ochengi
Protocol: as §1
(§3) 4240 compound s were screened against O. ochengi at the University of Buea in Cameroon, while a subset of […] compounds was successfully screened in UK by the Northwick Park Institute for Medical Research against O. lienalis, at a uniform molarity. […] After removing molecules that were toxic to mammalian cells (IC50<5 µg/ml), 292 molecules remained for further evaluation. […] From the latter sub-set, […] distinct chemical series and one singleton [structure # 35] were active against both microfilaria and adults. One series [structures # 2, 3] was deemed not interesting due to lack of selectivity against mammalian cells. The remaining series is being transferred to ANDI for further progression as part of a new collaboration.

[6] = tested on: Trypanosoma brucei brucei Squib-427 strain; experiment: Antitrypanosomal activity assay, T. brucei (resazurin); format: cell-based; conditions: T. brucei Squib 427 bloodstream forms, 72 h
Protocol: as §1

[7] = tested on: Brugia malayi adult worms; experiment: Anti-Brugia malayi adult worm motility assay; format: cell-based; conditions: B. malayi adult worms; 12.5 µM
Text: as §2, with “In some cases, particularly for the antifilarial screens, a second whole organism test with adult stage parasites is included prior to animal evaluation. The decision to utilize microfilariae for primary screening was based on throughput and biological considerations. It is difficult to acquire enough adult filariae to enable screening more than 1000 compounds per year, a rate far lower than needed for timely evaluation of the available compounds. In light of this situation, and considering that we are targeting molecules that are active on both stages, microfilariae screening was adopted as a suitable filter to identify compounds with potential macrofilaricidal activity. As” for “As”, “Of the test set, 53 compounds met the activity criterion for microfilariae (100% motility reduction) and an additional 58 inhibited adult worm motility ≥75% at 10 µM.” left out

[8] = tested on: Schistosoma mansoni adult worms; experiment: Anti-Schistosoma activity assay (adult worm motility); format: cell-based; conditions: S. mansoni adult worms; 12.5 µM (method: 10 µg/ml or 12.5 µM)
Protocol: as §1
A subset of 9478 of the 10,000 compound collection was tested against the Puerto Rican strain of S. mansoni. 6144 of these were tested in a primary larval assay followed by the ex-vivo adult secondary screen. The remainder was screened only in the adult assay. […] The 65 compounds were sorted by chemical attractiveness, potency against adult schistosomes in culture, selectivity against other parasites, and toxicity to mammalian cells in culture. Based on this analysis, 5 series encompassing 13 compounds were chosen for advancement through the African Network for Drug and Diagnostic Innovation (ANDI) and other PDPs. Representative structures [structures # 13, 27, 28] are shown (Table S1). These compounds are unburdened by obvious toxic moieties, have acceptable compliance with the Lipinski rules, are selectively active against schistosomes and are not overtly toxic to mammalian cells. It has unfortunately not been possible to titrate all of these hits in culture; of about 50% for which such data are available, none has an IC50<2 µg/ml (which is the initial potency criteria).

Onchocerca adult worms = format: cell-based
Text: In some cases, particularly for the antifilarial screens, a second whole organism test with adult stage parasites is included prior to animal evaluation. The decision to utilize microfilariae for primary screening was based on throughput and biological considerations. It is difficult to acquire enough adult filariae to enable screening more than 1000 compounds per year, a rate far lower than needed for timely evaluation of the available compounds. In light of this situation, and considering that we are targeting molecules that are active on both stages, microfilariae screening was adopted as a suitable filter to identify compounds with potential macrofilaricidal activity.
as §3

Compound | MAL IC50 [1] | CHA IC50 [2] | LF/MF % Motility Reduction at 12.5µM [3] | CYT IC50 [4] | ONC/MF % Motility Reduction at 12.5µM [5] | HAT IC50 [6] | LF/AW % Motility Reduction at 12.5µM [7] | SCH % Motility Reduction at 12.5µM [8] | ONC/AW % worm Mortality @ 12.5µM (Onchocerca adult worms)
CCOC(=O)c1ccc(NC(=O)CSc2nnc(NC(=O)C34CC5CC(CC(C5)C3)C4)s2)cc1 [TDR76705] | >15.02 mg/L | >15.02 mg/L | 100% | >15.02 mg/L | 33.3% | >15.02 mg/L | 100% | 0% | –
CCC(=O)c1c(NC(=O)c2ccc(C)cc2)sc2c1CCN(CC)C2 [TDR76871] | 1.87 mg/L | 0.48 mg/L | 33.3% | >11.79 mg/L | 0% | 0.32 mg/L | 22.3% | 0% | –
COC(=O)c1c(NC(=O)c2cc3ccccc3oc2=O)sc2c1CCN(Cc1ccccc1)C2 [TDR76873] | >15.33 mg/L | 0.64 mg/L | 100% | 8.92 mg/L | 40% | >15.33 mg/L | 100% | 0% | –
O=C(Nc1nc2c(s1)CSc1ccccc1-2)C1COc2ccccc2O1 (centres unmarked) [TDR77035] | 4.75 mg/L | 0.5 mg/L | 33% | 2.62 mg/L | 100% | 0.37 mg/L | 0% | 100% | –
O=C(COc1cccc2c1CCN(Cc1ccccc1F)C2=O)N1CCC(Cc2ccccc2)CC1 [TDR77144] | 4.54 mg/L | 0.56 mg/L | 100% | 4.56 mg/L | 0% | 0.47 mg/L | 100% | 0% | –
Cc1cc(NC(=O)CSc2ccc3nnc(-c4cccs4)n3n2)no1 [TDR78826] | 0.16 mg/L | 4.97 mg/L | – | >11.17 mg/L | 6.7% | – | – | 0% | 0%
CCCc1cc(=O)[nH]c(-n2nc(C)cc2NC(=O)C23CC4CC(CC(C4)C2)C3)n1 [TDR79936] | <0.12 mg/L | <0.12 mg/L | – | <0.12 mg/L | 100% | <0.12 mg/L | – | 100% | 75%
CSCc1csc(NC(=O)Cc2ccc(Cl)cc2)n1 [TDR81206] | 5.98 mg/L | 2.47 mg/L | – | 3.7 mg/L | 100% | 3.0 mg/L | – | 0% | 75%
O=C(Nc1nc2c(s1)CSc1ccccc1-2)C1CCCN1S(=O)(=O)c1cccs1 (centres unmarked) [TDR83016] | 3.71 mg/L | 0.5 mg/L | 100% | 1.88 mg/L | 100% | 0.45 mg/L | 0% | 100% | –
